Laboratory results: patent US7368578B2, “Five-membered heterocyclic compounds” (Takeda Pharmaceutical Company Limited, priority 2002, dated 2008)
Where a name gives a salt, the structure may show the parent alone.

melting point [°C]	Compound
107 to 108	COc1cc(COc2nn(-c3ccccc3)cc2/C=C/P(=O)(OC)OC)ccc1OCc1nc(-c2ccco2)oc1C
109 to 110	CCOP(=O)(/C=C/c1cn(-c2ccccc2)nc1OCc1ccc(OCc2nc(-c3ccccc3)oc2C)cc1)OCC
147 to 149	CCOP(=O)(OCC)/C(O)=C/c1cn(-c2ccccc2)nc1OCc1ccc(OCc2nc(-c3ccco3)oc2C)c(OC)c1
194 to 195	CCOP(=O)(/C=C/c1cn(-c2ccccc2)nc1OCc1ccc(OCc2nc(-c3ccc(C(=O)O)cc3)oc2C)c(OC)c1)OCC
146 to 148	CCOP(=O)(/C=C/c1cn(-c2ccccc2)nc1OCc1ccc(OCc2nc(-c3ccc(C(N)=O)cc3)oc2C)c(OC)c1)OCC
110 to 111	CCOP(=O)(/C=C/c1cn(-c2ccccc2)nc1OCc1ccc(OCc2nc(-c3ccccc3)sc2C)c(OC)c1)OCC
129 to 130	CCOP(=O)(/C=C/c1cn(-c2ccccc2)nc1OCc1ccc(OCc2nc(-c3ccc(C(=O)OC)cc3)oc2C)c(OC)c1)OCC
113 to 114	CCOP(=O)(/C=C/c1cn(-c2ccccc2)nc1OCc1ccc(OCc2sc(-c3ccccc3)nc2C)c(OC)c1)OCC
128 to 129	CCOP(=O)(/C=C/c1cn(-c2ccccc2)nc1OCc1ccc(OCc2nc(-c3cccnc3)oc2C)c(OC)c1)OCC
127 to 128	CCOP(=O)(/C=C/c1cn(-c2ccccc2)nc1OCc1ccc(OCc2nc(-c3cccc(O)c3)oc2C)c(OC)c1)OCC
129 to 130	CCOC(=O)c1ccc(-c2nc(COc3ccc(COc4nn(-c5ccccc5)cc4/C=C/P(=O)(OCC)OCC)cc3OC)c(C)o2)o1
144 to 145	CCOP(=O)(/C=C/c1cn(-c2ccccc2)nc1OCc1ccc(OCc2nc(-c3ccc(OC)c(C(=O)OC)c3)oc2C)c(OC)c1)OCC
121 to 122	CCOP(=O)(/C=C/c1cn(-c2ccccc2)nc1OCc1ccc(OCc2nc(-c3ccc(C)c(C(=O)OC)c3)oc2C)c(OC)c1)OCC
165 to 166	CCOP(=O)(/C=C/c1cn(-c2ccccc2)nc1OCc1ccc(OCc2nc(-c3ccc(C(=O)O)s3)oc2C)c(OC)c1)OCC
147 to 148	CCOP(=O)(/C=C/c1cn(-c2ccccc2)nc1OCc1ccc(OCc2nc(-c3cccc(C#N)c3)oc2C)c(OC)c1)OCC
112 to 113	CCOP(=O)(/C=C\c1cn(-c2ccccc2)nc1OCc1ccc(OCc2nc(-c3cccc(C(=O)OC)c3)oc2C)c(OC)c1)OCC
158 to 159	CCOP(=O)(/C=C\c1cn(-c2ccccc2)nc1OCc1ccc(OCc2nc(-c3cccc(C(=O)O)c3)oc2C)c(OC)c1)OCC
126 to 127	COc1cc(COc2nn(-c3ccccc3)cc2C(C[N+](=O)[O-])C[N+](=O)[O-])ccc1OCc1nc(-c2ccco2)oc1C
146 to 148	COc1cc(COc2nn(-c3ccccc3)cc2C=O)ccc1OCc1nc(-c2cccc(OS(C)(=O)=O)c2)oc1C (as salt: methanesulfonate) [Example 228, 3-{4-[(4-{[(4-formyl-1-phenyl-1H-pyrazol-3-yl)oxy]methyl}-2-methoxyphenoxy)methyl]-5-methyl-1,3-oxazol-2-yl}phenyl methanesulfonate]
154 to 155	CCOC(=O)c1cn(Cc2ccccc2)nc1OCc1ccc(OCc2nc(-c3ccccc3)oc2C)c(OC)c1 [Example 1, ethyl 1-benzyl-3-({3-methoxy-4-[(5-methyl-2-phenyl-1,3-oxazol-4-yl)methoxy]benzyl}oxy)-1H-pyrazole-4-carboxylate]
162 to 163	COc1cc(COc2nn(Cc3ccccc3)cc2C(=O)O)ccc1OCc1nc(-c2ccccc2)oc1C [Example 2, 1-benzyl-3-({3-methoxy-4-[(5-methyl-2-phenyl-1,3-oxazol-4-yl)methoxy]benzyl}oxy)-1H-pyrazole-4-carboxylic acid]
164 to 165	COc1cc(COc2nn(Cc3ccccc3)cc2C(N)=O)ccc1OCc1nc(-c2ccccc2)oc1C [Example 3, 1-benzyl-3-({3-methoxy-4-[(5-methyl-2-phenyl-1,3-oxazol-4-yl)methoxy]benzyl}oxy)-1H-pyrazole-4-carboxamide]
90 to 91	COc1cc(COc2nn(Cc3ccccc3)cc2CO)ccc1OCc1nc(-c2ccccc2)oc1C [Example 4, [1-benzyl-3-({3-methoxy-4-[(5-methyl-2-phenyl-1,3-oxazol-4-yl)methoxy]benzyl}oxy)-1H-pyrazol-4-yl]methanol]
151 to 152	COc1cc(COc2nn(Cc3ccccc3)cc2C=O)ccc1OCc1nc(-c2ccccc2)oc1C [Example 5, 1-benzyl-3-({3-methoxy-4-[(5-methyl-2-phenyl-1,3-oxazol-4-yl)methoxy]benzyl}oxy)-1H-pyrazole-4-carbaldehyde]
101 to 102	CCOC(=O)c1cn(Cc2ccccc2)nc1OCc1ccc(OCc2nc(-c3ccco3)oc2C)cc1 [Example 6, ethyl 1-benzyl-3-[(4-{[2-(2-furyl)-5-methyl-1,3-oxazol-4-yl]methoxy}benzyl)oxy]-1H-pyrazole-4-carboxylate]
170 to 171	Cc1oc(-c2ccco2)nc1COc1ccc(COc2nn(Cc3ccccc3)cc2C(=O)O)cc1 [Example 7, 1-benzyl-3-[(4{[2-(2-furyl)-5-methyl-1,3-oxazol-4-yl]methoxy}benzyl)oxy]-1H-pyrazole-4-carboxylic acid]
139 to 140	Cc1oc(-c2ccco2)nc1COc1ccc(COc2nn(Cc3ccccc3)cc2C(N)=O)cc1 [Example 8, 1-benzyl-3-[(4{[2-(2-furyl)-5-methyl-1,3-oxazol-4-yl]methoxy}benzyl)oxy]-1H-pyrazole-4-carboxamide]
193 to 194	CC(=O)NC(=O)c1cn(Cc2ccccc2)nc1OCc1ccc(OCc2nc(-c3ccco3)oc2C)cc1 [Example 9, N-acetyl-1-benzyl-3-[(4{[2-(2-furyl)-5-methyl-1,3-oxazol-4-yl]methoxy}benzyl)oxy]-1H-pyrazole-4-carboxamide]
118 to 119	Cc1oc(-c2ccco2)nc1COc1ccc(COc2nn(Cc3ccccc3)cc2C=O)cc1 [Example 11, 1-benzyl-3-[(4{[2-(2-furyl)-5-methyl-1,3-oxazol-4-yl]methoxy}benzyl)oxy]-1H-pyrazole-4-carbaldehyde]
117 to 118	CCOC(=O)c1cn(Cc2ccccc2)nc1OCc1ccc(OCc2nc(-c3ccco3)oc2C)c(OC)c1 [Example 12, ethyl 1-benzyl-3-[(4-{[2-(2-furyl)-5-methyl-1,3-oxazol-4-yl]methoxy}-3-methoxybenzyl)oxy]-1H-pyrazole-4-carboxylate]

The remaining lines, values behind:

Compound	melting point [°C]
CCOP(=O)(/C=C/c1nc(-c2ccccc2)oc1COc1ccc(OCc2nc(-c3ccccc3)oc2C)cc1)OCC	124 to 125
CCOP(=O)(CCc1cc(OCc2ccc(OCc3nc(-c4ccco4)oc3C)c(OC)c2)nn1-c1ccccc1)OCC	76 to 77
CCOP(=O)(/C=C/c1cn(-c2ccccc2)nc1OCc1ccc(OCc2nc(-c3ccco3)oc2C)cc1)OCC	131 to 132
CCOc1cc(COc2nn(-c3ccccc3)cc2/C=C/P(=O)(OCC)OCC)ccc1OCc1nc(-c2ccco2)oc1C	117 to 118
CCOP(=O)(/C=C/c1cn(-c2ccccc2)nc1OCc1ccc(OCc2nc(-c3ccco3)oc2C)c(C(=O)OC)c1)OCC	92 to 93
CCOP(=O)(/C=C/c1cn(-c2ccccc2)nc1OCc1ccc(OCc2nc(-c3ccco3)oc2C)c(C(=O)O)c1)OCC	169 to 170
CCOP(=O)(/C=C/c1cn(-c2ccccc2)nc1OCc1ccc(OCc2nc(-c3ccco3)oc2C)nc1)OCC	134 to 135
CCOP(=O)(/C=C/c1cn(C)nc1OCc1ccc(OCc2nc(-c3ccco3)oc2C)c(OC)c1)OCC	72 to 73
CCOP(=O)(/C=C/c1cn(CC)nc1OCc1ccc(OCc2nc(-c3ccco3)oc2C)c(OC)c1)OCC	82 to 84
CCOP(=O)(/C=C/c1cn(CCO)nc1OCc1ccc(OCc2nc(-c3ccco3)oc2C)c(OC)c1)OCC	95 to 96
CCOP(=O)(/C=C/C=C/c1cn(-c2ccccc2)nc1OCc1ccc(OCc2nc(-c3ccco3)oc2C)c(OC)c1)OCC	143 to 144
CCOP(=O)(/C=C/c1cn(-c2ccccc2)nc1OCc1ccc(OCc2nc(N3CCCCC3)sc2C)c(OC)c1)OCC	95 to 96
CCOP(=O)(/C=C/c1cn(-c2ccccc2)nc1OCc1ccc(OCc2coc(-c3ccco3)n2)c(OC)c1)OCC	96 to 97
CCOP(=O)(/C=C/c1cn(-c2ccccc2)nc1OCc1ccc(OCc2cn(-c3ccccn3)nc2C)c(OC)c1)OCC	103 to 104
CCOP(=O)(/C=C/c1cn(-c2ccccc2)nc1OCc1ccc(OCc2nc(-c3ccccc3)cn2C)c(OC)c1)OCC	144 to 145
CCOP(=O)(/C=C/c1cn(-c2ccccc2)nc1OCc1ccc(OCc2nc(-c3cccc(C(=O)O)c3)oc2C)cc1)OCC	153 to 155
CCOP(=O)(/C=C/c1cn(-c2ccccc2)nc1OCc1ccc(OCc2nc(N3CCOCC3)sc2C)c(OC)c1)OCC	88 to 90
CCOP(=O)(/C=C/c1cnc(-c2ccccc2)nc1OCc1ccc(OCc2nc(-c3ccco3)oc2C)c(OC)c1)OCC	103 to 104
CCOP(=O)(/C=C\c1cnc(-c2ccccc2)nc1OCc1ccc(OCc2nc(-c3ccco3)oc2C)c(OC)c1)OCC	154 to 155
CCOC(=O)/C=C/c1nc(COc2ccc(COc3nn(-c4ccccc4)cc3/C=C/P(=O)(OCC)OCC)cc2OC)c(C)o1	130 to 131
CCOP(=O)(/C=C/c1cn(-c2ccccc2)nc1OCc1ccc(OCc2nc(-c3ccc(C)c(C(=O)O)c3)oc2CC)c(OC)c1)OCC	165 to 166
CCOP(=O)(/C=C/c1cn(-c2ccccc2)nc1OCc1ccc(OCc2nc(N3CCC(C(=O)O)CC3)sc2C)c(OC)c1)OCC	159 to 160
CCOC(=O)c1ccc(-c2nc(COc3ccc(COc4nn(-c5ccccc5)cc4/C=C/P(=O)(OCC)OCC)cc3OC)c(C)o2)s1	114 to 115
CCOP(=O)(/C=C/c1cn(-c2ccccc2)nc1OCc1ccc(OCc2nc(-c3ccc(CC(=O)[O-])cc3)oc2C)c(OC)c1)OCC.[Na+]	109 to 110
